Results on ten compounds are retold here after patent US10717734B2, “Indole and azaindole haloallylamine derivative inhibitors of lysyl oxidases and uses thereof” (PHARMAXIS LTD., priority 2016, dated 2020).

Where a name gives a salt, the structure may show the parent alone.

Test [1] relates to primary fibroblasts from confirmed cases of IPF (fibroblastic foci). The test is described as follows: Collagen cross-link formation in in vitro fibroblastic foci model of IPF. The class given is cell-based, human. The following applies: TGF-β1 stimulated foci, six weeks culture with inhibitor. From the text:
Reduction of Collagen Cross-Link Formation in an in vitro Fibroblastic Foci Model of IPF
The lung tissue of patients with idiopathic pulmonary fibrosis (IPF) is characterised by dense collections of myofibroblasts and extracellular matrix (ECM) termed ‘fibroblastic foci’. Using a novel in vitro model of fibroblastic foci (Jones et al., AJRCCM 191; 2015:A4912) the formation of lysyl oxidase (LOX) mediated collagen cross-links and the effects of the nonselective LOX inhibitor β-aminopropionitrile (BAPN) as well lysyl oxidase like-2 (LOXL2)-selective inhibitors were investigated.
Cultures of primary fibroblasts were grown out from clinical diagnostic biopsies of fibrotic lung and stored in liquid nitrogen. […]
To quantify collagen cross-links (Robins Biochem Soc Trans 2007; 35(5): 849-852; Saito et al Anal. Biochem. 1997; 253: 26-32; Sims, Avery & Bailey Methods in Molecular Biology 2000; vol 139: 11-26), cultures were treated with potassium borohydride to stabilise the reducible immature cross-links, and hydrolysed in 6N HCl at 100° C. for 16 hr. Total collagen content was assessed by hydroxyproline assay. Immature cross-links were assessed by LC/MS/MS and mature pyridinoline cross-links by ELISA. Cross-link data is expressed as moles of cross-link per mole collagen. […]

The target in another test is Recombinant human MAO-B (Homo sapiens (Human), UniProt P27338). The test is described as follows: Human recombinant MAO-B inhibition. It counts as biochemical. Conditions: benzylamine 100 μM. A digest of the protocol: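 Recombinant human MAO-B (0.06 mg/mL) was the enzyme source, with benzylamine substrate at 100 μM. Otherwise run as for the human SSAO/VAP-1 assay.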

For a further test, the target named is Bovine LOX (Bos taurus (Bovine), UniProt P33072). Put plainly: LOX inhibition, peroxidase-coupled Amplex Red amine oxidase assay. The class given is biochemical. The following applies: 30 min preincubation at 37° C., putrescine substrate. A digest of the protocol:
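Bovine LOX in 1.2 M urea, 50 mM sodium borate pH 8.2 […]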

Test [2] relates to CCl4 induced liver fibrosis. The test is described as follows: CCl4 induced liver fibrosis model. It counts as in vivo, rat. Conditions: 0.1-100 mg/Kg. As for the experimental part: Inhibition of CCl4 Induced Liver Fibrosis
An analysis of the use of LOXL2 inhibitors to treat inflammatory/fibrotic diseases is performed through the use of a CCl4 induced liver fibrosis model. Liver injury is frequently followed by complete parenchymal regeneration due to regenerative potency of hepatocytes. Continuous liver injury due to the administration of CCl4 leads to extracellular matrix accumulation, accompanied by recurrent hepatocyte necrosis, inflammation, and regenerative processes, causing liver fibrosis and consequently liver cirrhosis (see Natsume, M, et al., Attenuated liver fibrosis and depressed serum albumin levels in carbon tetrachloride-treated IL-6-deficient mice. J. Leukoc. Biol., 1999, 66, 601-608 also See Yao, Q, Y, et al. Inhibition by curcumin of multiple sites of the transforming growth factor-beta1 signalling pathway ameliorates the progression of liver fibrosis induced by carbon tetrachloride in rats. BMC Complement Altern Med. 2012 Sep. 16; 12(1):156.)
Rats are administered orally with CCl4 at a concentration of 0.25 μL/g in olive oil, 3 times per week for 6 weeks. Compound 22 is given 0.1-100 mg/Kg throughout the period of the experimental procedure or only 3 weeks after CCl4 administration and then throughout the entire study. […]

A further test deals with Human LOXL2 (Homo sapiens (Human), UniProt Q9Y4K0). The test is described as follows: LOXL2 inhibition, peroxidase-coupled Amplex Red amine oxidase assay. It counts as biochemical. The following applies: 30 min preincubation at 37° C., putrescine substrate. The gist of the method:
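Enzyme preincubated 30 min at 37 °C with compound (11-point curve) in 1.2 M urea, 50 mM borate pH 8.2 plus 1 μM mofegiline and 0.5 mM pargyline; putrescine at twice KM (10 mM for LOXL2), Amplex Red and HRP added. Fluorescence (565/590 nm) read every 2.5 min for 30 min; IC50 from kinetic slopes.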

Test [3] addresses Human recombinant SSAO/VAP-1 (Homo sapiens (Human), UniProt Q16853). Put plainly: Human recombinant SSAO/VAP-1 amine oxidase inhibition. Conditions: 30 min preincubation at 37° C., 600 μM benzylamine. The class given is biochemical. The gist of the method:
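Purified SSAO/VAP-1 (residues 34-763, expressed in CHO Lec 8 cells; 0.25 μg/mL) preincubated 30 min at 37° C with compound in 0.1 M sodium phosphate pH 7.4. Reaction mix of 600 μM benzylamine, 120 μM Amplex Red and 1.5 U/mL HRP added; fluorescence (ex 565/em 590 nm) read every 2.5 min for 30 min; IC50 from kinetic slopes over 4-11 point curves.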

Sequence of Recombinant human MAO-B (P27338 whole entry): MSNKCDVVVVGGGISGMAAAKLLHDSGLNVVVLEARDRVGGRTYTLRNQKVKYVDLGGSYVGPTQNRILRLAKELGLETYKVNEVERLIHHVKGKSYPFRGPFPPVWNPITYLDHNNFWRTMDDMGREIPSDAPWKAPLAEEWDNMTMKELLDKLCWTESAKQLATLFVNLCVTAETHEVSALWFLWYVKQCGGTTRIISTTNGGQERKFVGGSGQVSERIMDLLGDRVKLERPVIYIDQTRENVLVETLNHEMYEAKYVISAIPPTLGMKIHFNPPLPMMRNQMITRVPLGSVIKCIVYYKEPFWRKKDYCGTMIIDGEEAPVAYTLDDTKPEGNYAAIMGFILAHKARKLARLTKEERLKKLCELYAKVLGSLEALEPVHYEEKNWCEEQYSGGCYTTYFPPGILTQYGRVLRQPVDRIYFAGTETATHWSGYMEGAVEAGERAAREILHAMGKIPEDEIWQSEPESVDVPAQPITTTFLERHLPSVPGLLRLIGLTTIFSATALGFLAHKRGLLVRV
Sequence of Bovine LOX (P33072 170-418): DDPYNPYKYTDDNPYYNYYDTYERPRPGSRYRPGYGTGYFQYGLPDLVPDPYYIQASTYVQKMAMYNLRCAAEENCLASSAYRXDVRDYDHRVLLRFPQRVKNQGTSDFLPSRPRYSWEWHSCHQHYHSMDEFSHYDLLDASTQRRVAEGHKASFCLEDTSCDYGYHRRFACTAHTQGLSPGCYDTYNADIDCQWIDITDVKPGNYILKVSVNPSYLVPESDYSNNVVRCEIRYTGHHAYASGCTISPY
Sequence of Human LOXL2 (Q9Y4K0 26-774): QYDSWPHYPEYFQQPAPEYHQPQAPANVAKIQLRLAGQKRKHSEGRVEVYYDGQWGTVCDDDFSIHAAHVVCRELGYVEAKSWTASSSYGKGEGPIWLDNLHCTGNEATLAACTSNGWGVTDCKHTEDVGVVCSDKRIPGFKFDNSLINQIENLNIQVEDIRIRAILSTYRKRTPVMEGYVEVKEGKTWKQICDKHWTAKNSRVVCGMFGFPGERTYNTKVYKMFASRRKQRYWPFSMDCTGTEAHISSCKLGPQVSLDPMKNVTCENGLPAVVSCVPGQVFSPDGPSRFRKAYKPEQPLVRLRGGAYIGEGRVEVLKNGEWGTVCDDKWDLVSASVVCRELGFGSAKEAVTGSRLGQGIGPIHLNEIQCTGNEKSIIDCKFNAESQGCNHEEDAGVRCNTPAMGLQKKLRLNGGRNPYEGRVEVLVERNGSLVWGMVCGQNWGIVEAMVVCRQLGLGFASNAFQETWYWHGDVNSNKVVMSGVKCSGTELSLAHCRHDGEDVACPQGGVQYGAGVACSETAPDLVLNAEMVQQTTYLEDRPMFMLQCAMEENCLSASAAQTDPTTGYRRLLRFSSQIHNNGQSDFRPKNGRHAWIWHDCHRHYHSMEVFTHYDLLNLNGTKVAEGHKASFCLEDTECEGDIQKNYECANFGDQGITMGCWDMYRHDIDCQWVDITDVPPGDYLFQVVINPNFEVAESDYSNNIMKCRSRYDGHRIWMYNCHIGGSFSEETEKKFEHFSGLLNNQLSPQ
Sequence of Human recombinant SSAO/VAP-1 (Q16853 34-763): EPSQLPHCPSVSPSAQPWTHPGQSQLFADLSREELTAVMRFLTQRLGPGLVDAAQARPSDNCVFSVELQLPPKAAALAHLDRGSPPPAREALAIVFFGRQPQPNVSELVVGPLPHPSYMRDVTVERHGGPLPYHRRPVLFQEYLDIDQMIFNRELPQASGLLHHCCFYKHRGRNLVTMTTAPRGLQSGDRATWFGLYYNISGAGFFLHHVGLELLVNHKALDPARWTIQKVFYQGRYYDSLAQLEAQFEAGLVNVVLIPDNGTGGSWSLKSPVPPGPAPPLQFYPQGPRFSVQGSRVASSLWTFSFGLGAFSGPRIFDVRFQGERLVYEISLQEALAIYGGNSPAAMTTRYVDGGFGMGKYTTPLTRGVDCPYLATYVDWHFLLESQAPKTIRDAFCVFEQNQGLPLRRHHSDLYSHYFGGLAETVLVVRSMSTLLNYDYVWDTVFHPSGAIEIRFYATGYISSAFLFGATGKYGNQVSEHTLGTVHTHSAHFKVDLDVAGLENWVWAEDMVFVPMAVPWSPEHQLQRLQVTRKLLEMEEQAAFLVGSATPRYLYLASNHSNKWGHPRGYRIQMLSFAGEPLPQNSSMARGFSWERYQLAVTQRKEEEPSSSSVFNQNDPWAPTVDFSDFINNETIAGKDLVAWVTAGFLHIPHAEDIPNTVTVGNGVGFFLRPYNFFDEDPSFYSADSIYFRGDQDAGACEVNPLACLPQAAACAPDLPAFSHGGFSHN

Turning to `N#CCCN` [BAPN, β-aminopropionitrile], in test [1], the collagen cross-link formation entry is given as “reduced cross-link formation in a concentration dependent manner”.

With `CC(C)c1c(Cc2ccc(S(C)(=O)=O)nc2)c2ncccc2n1C/C(F)=C/CN` [Compound 22, trihydrochloride], the concentration for half-maximal inhibition (IC50) – broadly, the concentration needed to halve the response being measured – on Recombinant human MAO-B was over 3000 nM; against Bovine LOX, over 300 nM; on Human LOXL2, under 300 nM; in test [3], over 3000 nM. Besides, the “inhibition of liver collagen by hydroxyproline analysis” value in test [2] (CCl4 model, statistically significant) is over 30%. In addition, the “reduction of liver fibrosis by sirius red staining with quantification” value in test [2] (rats, oral CCl4 3 times per week for 6 weeks, versus vehicle-treated group) is listed as “up to 50%”.

In the case of `Cc1c(Cc2ccc(S(C)(=O)=O)c(Cl)c2)c2ncccc2n1C/C(F)=C/CN` [Compound 35, (Z)-4-(3-(3-chloro-4-(methylsulfonyl)benzyl)-2-methyl-1H-pyrrolo[3,2-b]pyridin-1-yl)-3-fluorobut-2-en-1-amine dihydrochloride], the IC50 at Recombinant human MAO-B was over 3000 nM; at Bovine LOX it was over 300 nM; against Human LOXL2, under 300 nM; in test [3] it was over 3000 nM.

On to `Cc1cc2c(cn1)c(Cc1ccc(S(C)(=O)=O)cc1)c(C)n2C/C(F)=C/CN` [Compound 36, (Z)-4-(2,6-dimethyl-3-(4-(methylsulfonyl)benzyl)-1H-pyrrolo[3,2-c]pyridin-1-yl)-3-fluorobut-2-en-1-amine dihydrochloride], for which the IC50 on Recombinant human MAO-B is over 3000 nM; on Bovine LOX, over 300 nM; against Human LOXL2 it was under 300 nM; in test [3] it was over 3000 nM.

Regarding `Cc1cc2c(nn1)c(Cc1ccc(S(=O)(=O)N(C)C)cc1)c(C)n2C/C(F)=C/CN` [Compound 37, (Z)-4-((5-(4-amino-2-fluorobut-2-en-1-yl)-3,6-dimethyl-5H-pyrrolo[3,2-c]pyridazin-7-yl)methyl)-N,N-dimethylbenzenesulfonamide dihydrochloride], the IC50 was over 3000 nM on Recombinant human MAO-B, over 300 nM on Bovine LOX, under 300 nM on Human LOXL2 and over 3000 nM in test [3].

For `Cc1ncc2c(n1)c(Cc1ccc(S(C)(=O)=O)cc1)c(C)n2C/C(F)=C/CN` [Compound 38, (Z)-4-(2,6-dimethyl-7-(4-(methylsulfonyl)benzyl)-5H-pyrrolo[3,2-d]pyrimidin-5-yl)-3-fluorobut-2-en-1-amine dihydrochloride], the 50% inhibitory concentration (IC50) on Recombinant human MAO-B is over 3000 nM; against Bovine LOX, over 300 nM; against Human LOXL2, under 300 nM; in test [3], over 3000 nM.

On to `Cc1ncc2c(n1)c(Cc1ccc(S(=O)(=O)N(C)C)cc1)c(C)n2C/C(F)=C/CN` [Compound 39, (Z)-4-((5-(4-amino-2-fluorobut-2-en-1-yl)-2,6-dimethyl-5H-pyrrolo[3,2-d]pyrimidin-7-yl)methyl)-N,N-dimethylbenzenesulfonamide dihydrochloride], for which the IC50 on Recombinant human MAO-B was over 3000 nM; against Bovine LOX, over 300 nM; against Human LOXL2 it was under 300 nM; in test [3], over 3000 nM.

As to `Cc1ccc2c(n1)c(CCc1ccc(S(C)(=O)=O)cc1)c(C)n2C/C(F)=C/CN` [Compound 40, (Z)-4-(2,5-dimethyl-3-(4-(methylsulfonyl)phenethyl)-1H-pyrrolo[3,2-b]pyridin-1-yl)-3-fluorobut-2-en-1-amine dihydrochloride], the concentration for half-maximal inhibition (IC50) at Recombinant human MAO-B is over 3000 nM; against Bovine LOX it was over 300 nM; on Human LOXL2, under 300 nM; in test [3] it was over 3000 nM.

Regarding `CC(C)c1c(Cc2ccc(S(=O)(=O)C(C)C)nc2)c2ncccc2n1C/C(F)=C/CN` [Compound 41, (Z)-3-fluoro-4-(2-isopropyl-3-((6-(isopropylsulfonyl)pyridin-3-yl)methyl)-1H-pyrrolo[3,2-b]pyridin-1-yl)but-2-en-1-amine hydrochloride], the half-inhibitory concentration (IC50) at Recombinant human MAO-B was over 3000 nM; at Bovine LOX, over 300 nM; against Human LOXL2 it was under 300 nM; in test [3], over 3000 nM.

In the case of `CC(C)c1c(C(O)c2ccc(S(C)(=O)=O)nc2)c2ncccc2n1C/C(F)=C/CN` (stereo not drawn) [Compound 42, (Z)-(1-(4-amino-2-fluorobut-2-en-1-yl)-2-isopropyl-1H-pyrrolo[3,2-b]pyridin-3-yl)(6-(methylsulfonyl)pyridin-3-yl)methanol dihydrochloride], the IC50 at Recombinant human MAO-B is over 3000 nM; against Bovine LOX, over 300 nM; against Human LOXL2, under 300 nM; in test [3], over 3000 nM.
